Structures can show the parent of a compound that is named as a salt. Where two headings read alike, the source gives them in different places.
Columns and labels:
F Xa = F Xa (Homo sapiens, UniProt P00742); conditions: cited from earlier work
human citrate plasma [1] = assay: Inhibition of the coagulation of human plasma: prothrombin time (PT); type: biochemical
Experimental: (§1) Determination of the Inhibition of Coagulation
(§2) For the determination of the prothrombin time (PT), 100 μl of thromboplastin (Dade, Unterschleiβheim) and 100 μl of inhibitor, dissolved in CaCl2 (0.05 M, 5% ethanol) were incubated at 37° C. for 2 min and the coagulation was started by addition of 100 μl of human citrate plasma. For the determination of the activated partial thromboplastin time (aPTT), 100 μl of human citrate plasma were incubated with 100 μl of aPTT reagent (Roche Diagnostics, Mannheim) at 37° C. for 3 min and the coagulation was started by addition of 100 μl of inhibitor, dissolved in CaCl2 (0.05 M, 5% ethanol). The coagulation times were determined using the Thrombotrack coagulometer (Immuno, Heidelberg).

human citrate plasma [2] = assay: Inhibition of the coagulation of human plasma: activated partial thromboplastin time (aPTT); type: biochemical
Experimental: as §1, §2

F Xa, sequence (P00742 235-488 limits assumed): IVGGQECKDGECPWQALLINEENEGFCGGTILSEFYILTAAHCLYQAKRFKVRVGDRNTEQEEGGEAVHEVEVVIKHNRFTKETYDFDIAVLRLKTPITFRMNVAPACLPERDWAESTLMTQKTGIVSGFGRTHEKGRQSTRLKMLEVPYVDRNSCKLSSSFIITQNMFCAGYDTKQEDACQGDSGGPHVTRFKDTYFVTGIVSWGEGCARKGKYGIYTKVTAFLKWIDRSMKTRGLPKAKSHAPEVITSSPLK
F Xa, sequence (P00742 41-179 partner limits assumed): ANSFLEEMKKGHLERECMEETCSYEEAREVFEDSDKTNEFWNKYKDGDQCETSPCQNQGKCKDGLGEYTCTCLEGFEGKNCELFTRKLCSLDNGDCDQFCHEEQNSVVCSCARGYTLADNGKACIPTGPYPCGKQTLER

## N=C(N)c1ccc(C=C2CCCCC(=Cc3ccc(C(=N)N)cc3)C2=O)cc1 [BABCH]
F Xa; literature
  Ki: 0.013 µM

## N=C(N)c1ccc(CNC(=O)CNC(=O)[C@@H](COCc2ccccc2)NS(=O)(=O)Cc2ccccc2)cc1 [Benzylsulfonyl-D-Ser(Bz)-Gly-4-amidinobenzylamide×TFA]
Human citrate plasma [1]; Concentration 0.1 μM
  Prolongation of the coagulation time (%) PT: 119%
Human citrate plasma [1]; Concentration 0.21 μM
  Prolongation of the coagulation time (%) PT: 127%
Human citrate plasma [1]; Concentration 0.42 μM
  Prolongation of the coagulation time (%) PT: 153%
Human citrate plasma [1]; Concentration 0.83 μM
  Prolongation of the coagulation time (%) PT: 198%
Human citrate plasma [1]; Concentration 1.7 μM
  Prolongation of the coagulation time (%) PT: 266%
Human citrate plasma [1]; Concentration 3.3 μM
  Prolongation of the coagulation time (%) PT: 386%
Human citrate plasma [2]; Concentration 0.1 μM
  Prolongation of the coagulation time (%) aPTT: 111%
Human citrate plasma [2]; Concentration 0.21 μM
  Prolongation of the coagulation time (%) aPTT: 122%
Human citrate plasma [2]; Concentration 0.42 μM
  Prolongation of the coagulation time (%) aPTT: 146%
Human citrate plasma [2]; Concentration 0.83 μM
  Prolongation of the coagulation time (%) aPTT: 185%
Human citrate plasma [2]; Concentration 1.7 μM
  Prolongation of the coagulation time (%) aPTT: 260%
Human citrate plasma [2]; Concentration 3.3 μM
  Prolongation of the coagulation time (%) aPTT: 385%

## N=C(N)c1ccc(CNC(=O)[C@@H]2CCN2C(=O)[C@H](NCC(=O)O)C2CCCCC2)cc1 [melagatran]
F Xa; literature (Gustafsson et al. 1996)
  Ki: 2.8 µM
